Laboratory results: patent US11648199B2 (AI Therapeutics, Inc, priority 2014, dated 2023)
“Also recorded” adds a separate entry of the source. Like-named read-outs stand apart in the source and are kept apart here.

Columns and labels:
[1] = Rapamycin in lung and blood by LC-MS/MS after oropharyngeal aspiration (OPA) or oral gavage; format: in vivo, male C57BL/6 mice
Description: Test Chemical Preparation: Evans Blue was prepared at 0.5% w/v in sterile distilled water. Rapamune Oral® was administered as supplied for oral dosing.
Dosing: Each animal was weighed prior to dosing to determine the amount of dose to be administered. A single gavage dose was administered using a […], glass syringe (Hamilton, Reno, Nev.) fitted with a ball-tipped 20-G stainless steel gavage dosing needle (Popper & Sons Inc., New Hyde Park, N.Y.). The dose administered to each animal was determined from the weight of the full syringe minus that of the empty syringe. The dosing time was recorded. Dosing of animals was spaced apart to allow blood collection at the appropriate times. The dose formulations administered to each group are shown below.
Each mouse was anesthetized with isoflurane, and restrained with the mouth open. The tongue was held to one side of the mouth with forceps, and the dose was slowly injected into the distal part of the oral cavity. The nostrils were covered with a finger for two breaths to ensure aspiration (Rao et al., 2003).
Collection of Blood and Lung Samples: At study termination (1 or 72 h after dosing), mice were anesthetized by exposure to CO2, and blood was collected by cardiac puncture with dipotassium EDTA as anticoagulant. Lung tissue was excised and divided into the right and left lung. The left lung was used for analysis, and the right lung flash frozen in liquid nitrogen and stored at −70° C. for further analysis.
Triamcinolone was used as internal standard.
Lung homogenate was prepared by homogenization of weighed lung samples with 2.8-mm ball bearings in a homogenizer with tissue+deionized water (1:3 w/v) in a SPEX SamplePrep 2010 Geno/Grinder.
The concentrations of standards were arranged so that each standard came from an alternate stock standard. A six-point calibration curve, each made in triplicate, was employed for analyte quantitation. A simple linear regression model with or without weighting was employed for curve fitting. The concentration range determined was from 1-2000 ng/mL in blood and 2-2000 ng/mL in lung homogenate.
Thirty (30) μL of matrix, 30 μL of spiking solution (methanol for blanks and samples), 10 μL Internal standard solution (in MeOH) and 90 μL of MeOH were pipetted into microcentrifuge tubes, vortexed briefly, then centrifuged for 6 min at 10,000 RPM at −4° C. Aliquots (90 μL) of supernatant were transferred to LC vial inserts, and then analyzed by LC-MS/MS (Table 2).

[2] = system: Phospho-S6 Ribosomal Protein (Ser240/244); test: S6-P/total S6 western blot of rat lung homogenates after inhalation; format: in vivo, Sprague-Dawley rats; settings: inhaled, target dose 0.354 mg/kg (FIG. 8B)
Description: Lungs samples from each animal were collected and snap frozen. The individual frozen lung samples were homogenized (Qiagen TissueLyser LT according to manufacturer's protocols) in 1×RIPA Buffer with protease and phosphatase inhibitors. […] The Western blot images were analyzed by NIH imageJ v1.48 to generate the respective antibody reactivity/intensity and create the ratio of S6 phosphorylation (S6-P) to total S6 intensities for each lung sample. The S6-P/total S6 ratios (y-axis) for sample organized by timepoint group (X-axis) were plotted on a one grouping variable scatter plot vertical graph (GraphPad, version 4.0), all samples in groups are represented by filled in black dots (●) on the graph and average is shown by the horizontal line between the dots within each respective group (FIG. 8B).

[3] = IV 10 mg/kg, 24 hours after single dose; cited from earlier work
[4] = 24 hours after 14th dose, cited from earlier work
[5] = clinical use; cited from earlier work
in vivo = settings: Sprague-Dawley, rat, inhaled
[6] = system: TSC2 deficient TRI-AML101 cell line; test: Cell viability, 10 point dose response, CellTiter-Glo; settings: 72 hours after compound addition, relative to DMSO control (FIG. 7, bottom)
Description: Two thousand cells in 50 uL of growth media (DMEM, 10% FBS, and 1% Penicillin/Streptomycin) were plated per well in a 96 well plate. […] 72 hours after compound addition, relative cell viability was determined by CellTiter-Glo® luminescence assay (Promega) and expressed as a percentage relative to vehicle (DMSO) treated control cells.

[7] = Observation for adverse effects / clinical signs after OPA dosing; settings: for adverse effects / clinical signs: 1 mg/kg, up to 72 h after dosing
Description: The oral dose was formulated using pharmaceutical oral liquid formulation Rapamune Oral® (Pfizer). […] An additional group of 6 mice received vehicle only (10% ethanol in water). […] At the 72-h necropsy, blood was obtained by cardiac puncture and the lungs removed.
The time of dosing was recorded as 0. Animals in groups 2 and 3 were euthanized at 1 h after dosing.

[8] = Biodistribution of rapamycin via inhalation, first study (single dose and 5 days)
[9] = inhaled 0.0360 mg/kg/day once a day, trough day 5
[10] = inhaled 1.0000 mg/kg/day once a day, trough day 5

CO[C@H]1C[C@@H]2CC[C@@H](C)[C@@](O)(O2)C(=O)C(=O)N2CCCC[C@H]2C(=O)O[C@H]([C@H](C)C[C@@H]2CC[C@@H](O)[C@H](OC)C2)CC(=O)[C@H](C)/C=C(\C)[C@@H](O)[C@@H](OC)C(=O)[C@H](C)C[C@H](C)/C=C/C=C/C=C/1C [Rapamycin, (3 S,6R,7E,9R,10R,12R,14S,15E,17E,19E,21S,23 S,26R,27R,34aS)-9,10,12,13,-14,21,22,23,24,25,26,27,32,33,34,34a-hexadecahydro-9,27-dihydroxy-3-[(1R)-2-[(1S,3R,4R)-4-hydroxy-3-methoxycyclohexyl]-1-methylethyl]-10,21-dimethox-y-6,8,12,14,20,26-hexamethyl-23,27-epoxy-3H-pyrido[2,1-c][1,4]oxaazacyclohentriacontine-1,5,11,28,29(4H,6H,31H)-pentone]
rapamycin in blood, in words ([1]; OPA 1 mg/kg, 72 h): below the limit of quantitation; also recorded: undetectable
Blood (ng/ml) ([1]; OPA 1 mg/kg, 72 h post-dose, individual mice): <ELOQ
Lung (ng/g tissue) ([1]; gavage (Rapamune Oral) 1 mg/kg, 1 h post-dose, individual mice, 1 mg/kg): <LOQ
rapamycin in lung or blood, in words ([1]; oral (gavage) 1 mg/kg, 72 hrs): undetectable
S6 phosphorylation in lung tissue [2]: Inhibits S6 Phosphorylation
Rapamycin in Blood [3]: 31 ng/mL
Rapamycin in Lung [3]: 721 ng/g
Rapamycin in Blood ([4]; IV 0.04 mg/kg/day): 9.4 ng/mL
Rapamycin in Lung ([4]; IV 0.04 mg/kg/day): 219 ng/g
Rapamycin in Blood ([4]; IV 0.08 mg/kg/day): 15.0 ng/mL
Rapamycin in Lung ([4]; IV 0.08 mg/kg/day): 457 ng/g
Rapamycin in Blood ([4]; IV 0.40 mg/kg/day): 19.6 ng/mL
Rapamycin in Lung ([4]; IV 0.40 mg/kg/day): 868 ng/g
Rapamycin in Blood ([4]; oral 0.4 mg/kg/day): 0.8 ng/mL
Rapamycin in Lung ([4]; oral 0.4 mg/kg/day): 42 ng/g
Rapamycin in Blood ([4]; oral 0.8 mg/kg/day): 2.1 ng/mL
Rapamycin in Lung ([4]; oral 0.8 mg/kg/day): 59 ng/g
lung toxicity [5]: pulmonary toxicity, usually in the form of interstitial pneumonitis
concentration at 12 h (in vivo; lung, 0.036 mg/kg/day): 95 ng/g
concentration at 12 h (in vivo; lung, 1 mg/kg/day): ~14800 ng/g
concentration at 12 h (in vivo; whole blood, 0.036 mg/kg/day): 4 ng/mL
concentration at 12 h (in vivo; whole blood, 1 mg/kg/day): 645 ng/mL
lowest concentration at which viability was inhibited [6]: 0.05 nM
adverse effects / clinical signs [7]: No significant clinical signs were observed
adverse effects / clinical signs ([7]; listed as rapamycin): No adverse effects were observed
acute toxicity to lung tissue ([7]; OPA 1 mg/kg, relatively high amounts in lung): not acutely toxic to lung tissue
Rapamycin in Blood [8, 9]: 4 ng/mL
Rapamycin in Lung [8, 9]: 87 ng/g
Rapamycin in Blood [8, 10]: 746 ng/mL
Rapamycin in Lung [8, 10]: 17163 ng/g
Rapamycin in Lung ([8]; inhaled 1.00 mg/kg/day, 12 hrs after a single dose): 14831 ng/g
